Results as given in PubChem BioAssay (NCI).
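96-well plates; 48 h exposure; 5 concentrations. Endpoints by linear interpolation between flanking doses. Not reached: highest tested concentration assigned. GI50 = concentration required for 50% inhibition of growth. TGI is the concentration that stops growth completely.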 Where a SMILES comes first, the peptide text is derived from it. [ ]: non-standard residue; d: D form. The star is where a group is joined. ξ: configuration not given here. ξF = NC(Cc1ccccc1)C(=O)O; Cbz = O=C(OCc1ccccc1)*; Aib = CC(C)(N)C(=O)O

Key:
Test in all cases: inhibition of tumour cell growth, NCI panel, 48 h
[1] = tested on: RPMI-8226 leukemia
[2] = tested on: OVCAR-5 ovarian
[3] = tested on: U251 CNS
[4] = tested on: HOP-92 NSCLC
[5] = tested on: RXF 393 renal
[6] = tested on: HCT-116 colon
[7] = tested on: K-562 leukemia
[8] = tested on: SW-620 colon
[9] = tested on: SF-539 CNS
[10] = tested on: LOX IMVI melanoma

| Structure (SMILES) | TGI [1] [µM] | TGI [2] [µM] | TGI [3] [µM] | TGI [4] [µM] | TGI [5] [µM] | TGI [6] [µM] | TGI [7] [µM] | GI50 [1] [µM] | GI50 [2] [µM] | GI50 [3] [µM] | GI50 [4] [µM] | GI50 [5] [µM] | GI50 [8] [µM] | TGI [8] [µM] | GI50 [9] [µM] | TGI [9] [µM] | GI50 [10] [µM] | TGI [10] [µM] | GI50 [6] [µM] | GI50 [7] [µM] |
| --- | --- | --- | --- | --- | --- | --- | --- | --- | --- | --- | --- | --- | --- | --- | --- | --- | --- | --- | --- | --- |
| CCOC(=O)CCC(NC(=O)OCc1ccccc1)C(=O)NC(CCC(=O)OCC)C(=O)NNC(=O)OC(C)(C)C (stereo not drawn) | > 100 | > 100 | > 100 | > 100 | > 100 | > 100 | > 100 |  |  |  |  |  |  |  |  |  |  |  |  |  |
| C[CH2][Ge]([CH2]C)([CH2]C)[O]C(=O)CCC(=O)[O][Ge]([CH2]C)([CH2]C)[CH2]C | > 100 | > 100 | > 100 | > 100 | > 100 | > 100 | > 100 | 0.249 | > 100 | 43.3 | 16.2 | > 100 | > 100 | > 100 | > 100 | > 100 | 58 | > 100 | 57.3 | 29.6 |
| COC(=O)C(C)(C)NC(=O)C(Cc1ccccc1)NC(=O)C(C)(C)NC(=O)OCc1ccccc1 (stereo not drawn) (Cbz-[Aib]-[ξF]-[Aib]-OMe) | > 100 | > 100 | > 100 |  |  | > 100 | > 100 |  |  |  |  |  |  | > 100 |  |  |  | > 100 |  |  |
| N=C(N)c1ccc(-c2ccc(-c3cccs3)s2)s1 |  | 2.52 |  | 2.6 | 0.924 |  |  |  | 1.21 |  | 1.06 | 0.29 | 1.63 | 3.21 | 1.58 | 2.96 |  |  |  |  |
| C(=N\OCCc1ccccc1)/c1cccnc1 | > 100 | > 100 | > 100 | > 100 | > 100 | > 100 | > 100 |  |  |  |  |  |  | > 100 |  | > 100 |  |  |  |  |
| NCCSCc1ccccc1Cl |  | > 100 | > 100 | > 100 | > 100 | > 100 | 76.6 |  |  |  |  |  |  | > 100 |  |  |  | 66.1 |  |  |
| COc1cc(-c2n/c(=C\c3c(O)[nH]c4cc(Cl)ccc34)cc3c2=Nc2ccccc2-3)cc(OC)c1OC | > 100 | > 100 | 3.36 |  | 7.34 | 13.7 | 48.6 | 67.1 | 18.3 | 1.71 |  | 2.37 | 4.07 | 54.9 | 11.2 | 30.8 | 2.76 | 16 | 3.48 | 3.57 |
| Cc1ccc(C(O)(c2ccc(C)cc2)c2ccccn2)cc1 | > 100 | > 100 | > 100 |  |  | > 100 | > 100 |  |  |  |  |  |  | > 100 |  | > 100 |  | > 100 |  |  |
| CC(=O)ON1C(=O)c2cccc3cccc(c23)C1=O | 53.4 | > 100 | > 100 | > 100 | 25.5 | 41.7 | > 100 |  |  |  |  |  |  | > 100 |  | 48.3 |  | 57.3 |  |  |
| c1cncc(O[Si](Oc2cccnc2)(Oc2cccnc2)Oc2cccnc2)c1 |  | > 100 | > 100 |  | > 100 |  |  |  |  |  |  |  |  | > 100 |  | > 100 |  | > 100 |  |  |
